Patent publication US11986532B2 (Arvinas Operations, Inc., priority 2021, dated 2024)
Where two headings read alike, the source gives them in different places.

Target: T1, BCL6 (Homo sapiens, UniProt P41182)
T1 construct: endogenous in cells; host or cells: T47D breast cancer epithelial cells
Test: Immunofluorescence protocol for high content imaging of BCL6 (degradation) in T47D cells, 3 days compound treatment
Type: cell-based
Conditions: for Dmax: read-out: Mean Dmax (%)** category; for DC50: read-out: Mean DC50 (nM)* category
How it was run: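 Remaining BCL6 in breast cancer T47D cells was measured by high-content immunofluorescence imaging after 3 days of treatment with serially diluted compound (top 0.1 or 1 μM). Nuclei were stained with Hoechst and cells with CellMask.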

[1] = T47D cells, 3 days compound treatment

DC50 [1] | Dmax [1] | SMILES | Dmax (T47D) | DC50
< 10 nM | ≥ 70% | CNC(=O)COc1cc2cc(Nc3nc(N4CCC(CN5CC6(CCN(c7cc8c(cc7F)C(=O)N(C7CCC(=O)NC7=O)C8)CC6)C5)CC4)ncc3Cl)ccc2n(C(C)C)c1=O (stereo not shown) [Compound 84] |  | 
< 10 nM | 50 to 70% | CNC(=O)COc1cc2cc(Nc3nc(N4CCN(CC5CCN(c6cc7c(cc6F)C(=O)N(C6CCC(=O)NC6=O)C7)CC5)CC4)ncc3Cl)ccc2n(C(C)C)c1=O (stereo not shown) [Compound 15, 2-{[6-({5-chloro-2-[4-({1-[2-(2,6-dioxopiperidin-3-yl)-6-fluoro-1-oxo-2,3-dihydro-1H-isoindol-5-yl]piperidin-4-yl}methyl)piperazin-1-yl]pyrimidin-4-yl}amino)-2-oxo-1-(propan-2-yl)-1,2-dihydroquinolin-3-yl]oxy}-N-methylacetamide] |  | 
< 10 nM | 50 to 70% | CNC(=O)COc1cc2cc(Nc3nc(N4CCC(CN5CCC6(CCN(c7ccc8c(c7)CN(C7CCC(=O)NC7=O)C8=O)C6=O)C5)CC4)ncc3Cl)ccc2n(C(C)C)c1=O (stereo not shown) [Compound 48, 2-{[6-({5-chloro-2-[4-({7-[2-(2,6-dioxopiperidin-3-yl)-1-oxo-2,3-dihydro-1H-isoindol-5-yl]-6-oxo-2,7-diazaspiro[4.4]nonan-2-yl}methyl)piperidin-1-yl]pyrimidin-4-yl}amino)-2-oxo-1-(propan-2-yl)-1,2-dihydroquinolin-3-yl]oxy}-N-methylacetamide] |  | 
< 10 nM | 50 to 70% | CNC(=O)COc1cc2cc(Nc3nc(N4CCC(CN5CCC6(CC5)CN(c5ccc7c(c5F)CN(C5CCC(=O)NC5=O)C7=O)C6)CC4)ncc3Cl)ccc2n(C(C)C)c1=O (stereo not shown) [Compound 71, 2-{[6-({5-chloro-2-[4-({2-[2-(2,6-dioxopiperidin-3-yl)-4-fluoro-1-oxo-2,3-dihydro-1H-isoindol-5-yl]-2,7-diazaspiro[3.5]nonan-7-yl}methyl)piperidin-1-yl]pyrimidin-4-yl}amino)-2-oxo-1-(propan-2-yl)-1,2-dihydroquinolin-3-yl]oxy}-N-methylacetamide] |  | 
< 10 nM | 50 to 70% | CNC(=O)COc1cc2cc(Nc3nc(N4CCN(C(C)(C)C5CCN(c6cc(F)c7c(c6)CN(C6CCC(=O)NC6=O)C7=O)CC5)CC4)ncc3Cl)ccc2n(C(C)C)c1=O (stereo not shown) [Compound 76, 2-{[6-({5-chloro-2-[4-(2-{1-[2-(2,6-dioxopiperidin-3-yl)-7-fluoro-1-oxo-2,3-dihydro-1H-isoindol-5-yl]piperidin-4-yl}propan-2-yl)piperazin-1-yl]pyrimidin-4-yl}amino)-2-oxo-1-(propan-2-yl)-1,2-dihydroquinolin-3-yl]oxy}-N-methylacetamide] |  | 
< 10 nM | 50 to 70% | CNC(=O)COc1cc2cc(Nc3nc(N4CCN(C(C)(C)C5CCN(c6cc7c(c(OC)c6)C(=O)N(C6CCC(=O)NC6=O)C7)CC5)CC4)ncc3Cl)ccc2n(C(C)C)c1=O (stereo not shown) [Compound 77, 2-{[6-({5-chloro-2-[4-(2-{1-[2-(2,6-dioxopiperidin-3-yl)-7-methoxy-1-oxo-2,3-dihydro-1H-isoindol-5-yl]piperidin-4-yl}propan-2-yl)piperazin-1-yl]pyrimidin-4-yl}amino)-2-oxo-1-(propan-2-yl)-1,2-dihydroquinolin-3-yl]oxy}-N-methylacetamide] |  | 
< 10 nM | 50 to 70% | CNC(=O)COc1cc2cc(Nc3nc(N4CCC(CN5CC6(CCN(c7cccc8c7C(=O)N(C7CCC(=O)NC7=O)C8=O)CC6(F)F)C5)CC4)ncc3Cl)ccc2n(C(C)C)c1=O (stereo not shown) [Compound 124, 2-{[6-({5-chloro-2-[4-({7-[2-(2,6-dioxopiperidin-3-yl)-1,3-dioxo-2,3-dihydro-1H-isoindol-4-yl]-5,5-difluoro-2,7-diazaspiro[3.5]nonan-2-yl}methyl)piperidin-1-yl]pyrimidin-4-yl}amino)-2-oxo-1-(propan-2-yl)-1,2-dihydroquinolin-3-yl]oxy}-N-methylacetamide] |  | 
10 to 50 nM | 50 to 70% | CNC(=O)COc1cc2cc(Nc3nc(N4CCN(CC5CCC6(CC5)CN(c5cc(OC)cc7c5C(=O)N(C5CCC(=O)NC5=O)C7=O)C6)CC4)ncc3Cl)ccc2n(C(C)C)c1=O (stereo not shown) [Compound 10, 2-{[6-({5-chloro-2-[4-({2-[2-(2,6-dioxopiperidin-3-yl)-6-methoxy-1,3-dioxo-2,3-dihydro-1H-isoindol-4-yl]-2-azaspiro[3.5]nonan-7-yl}methyl)piperazin-1-yl]pyrimidin-4-yl}amino)-2-oxo-1-(propan-2-yl)-1,2-dihydroquinolin-3-yl]oxy}-N-methylacetamide] |  | 

More lines, now with the values behind:

SMILES | DC50 [1] | Dmax [1] | Dmax (T47D) | DC50
CCC(C)n1c(=O)c(OCC(=O)NC)cc2cc(Nc3nc(N4CCC(O[C@H]5C[C@H](N6CCC(c7ccc8c(c7F)CN(C7CCC(=O)NC7=O)C8=O)CC6)C5)CC4)ncc3Cl)ccc21 (stereo partly shown) [Compound 424, 2-{[1-(butan-2-yl)-6-[(5-chloro-2-{4-[(1r,3r)-3-{4-[2-(2,6-dioxopiperidin-3-yl)-4-fluoro-1-oxo-2,3-dihydro-1H-isoindol-5-yl]piperidin-1-yl}cyclobutoxy]piperidin-1-yl}pyrimidin-4-yl)amino]-2-oxo-1,2-dihydroquinolin-3-yl]oxy}-N-methylacetamide] |  |  | ≥ 70% | < 10 nM
CNC(=O)COc1cc2cc(Nc3nc(N4CCC(O[C@H]5C[C@H](N6CCN(c7ccc8c(c7Cl)CN(C7CCC(=O)NC7=O)C8=O)CC6)C5)CC4)ncc3Cl)ccc2n(C(C)C)c1=O (stereo partly shown) [Compound 181, 2-({6-[(5-chloro-2-{4-[(1r,3r)-3-{4-[4-chloro-2-(2,6-dioxopiperidin-3-yl)-1-oxo-2,3-dihydro-1H-isoindol-5-yl]piperazin-1-yl}cyclobutoxy]piperidin-1-yl}pyrimidin-4-yl)amino]-2-oxo-1-(propan-2-yl)-1,2-dihydroquinolin-3-yl}oxy)-N-methylacetamide] | < 10 nM | ≥ 70% |  | 
CNC(=O)COc1cc2cc(Nc3nc(N4CCC(O[C@H]5C[C@H](N6CC[C@H](c7ccc8c(c7F)CN(C7CCC(=O)NC7=O)C8=O)[C@H](O)C6)C5)CC4)ncc3Cl)ccc2n(C(C)C)c1=O (stereo partly drawn) [Compound 282, 2-({6-[(5-chloro-2-{4-[(1r,3r)-3-[(3S,4R)-4-[2-(2,6-dioxopiperidin-3-yl)-4-fluoro-1-oxo-2,3-dihydro-1H-isoindol-5-yl]-3-hydroxypiperidin-1-yl]cyclobutoxy]piperidin-1-yl}pyrimidin-4-yl)amino]-2-oxo-1-(propan-2-yl)-1,2-dihydroquinolin-3-yl}oxy)-N-methylacetamide] |  |  | 50 to 70% | < 10 nM
CNC(=O)COc1cc2cc(Nc3nc(N4CCC(O[C@H]5C[C@H](N6CC[C@@H](c7ccc8c(c7F)CN(C7CCC(=O)NC7=O)C8=O)C(C)(C)C6)C5)CC4)ncc3Cl)ccc2n(C(C)C)c1=O (stereo partly drawn) [Compound 430, 2-({6-[(5-chloro-2-{4-[(1r,3r)-3-[(4R)-4-[2-(2,6-dioxopiperidin-3-yl)-4-fluoro-1-oxo-2,3-dihydro-1H-isoindol-5-yl]-3,3-dimethylpiperidin-1-yl]cyclobutoxy]piperidin-1-yl}pyrimidin-4-yl)amino]-2-oxo-1-(propan-2-yl)-1,2-dihydroquinolin-3-yl}oxy)-N-methylacetamide] |  |  | ≥ 70% | < 10 nM
CNC(=O)COc1cc2cc(Nc3nc(N4CCC(O[C@H]5C[C@H](N6CCN(c7ccc8c(c7)C(=O)N(C7CCC(=O)NC7=O)C8=O)C[C@H]6C)C5)CC4)ncc3Cl)ccc2n(C(C)C)c1=O (stereo partly drawn) [Compound 263, 2-({6-[(5-chloro-2-{4-[(1r,3r)-3-[(2R)-4-[2-(2,6-dioxopiperidin-3-yl)-1,3-dioxo-2,3-dihydro-1H-isoindol-5-yl]-2-methylpiperazin-1-yl]cyclobutoxy]piperidin-1-yl}pyrimidin-4-yl)amino]-2-oxo-1-(propan-2-yl)-1,2-dihydroquinolin-3-yl}oxy)-N-methylacetamide] |  |  | 50 to 70% | < 10 nM
CNC(=O)COc1cc2cc(Nc3nc(N4CCCCC4)ncc3Cl)ccc2n(CCOc2ccc3c(c2)C(=O)N(C2CCC(=O)N(C)C2=O)C3=O)c1=O (stereo not shown) [Compound 320, 2-[(6-{[5-chloro-2-(piperidin-1-yl)pyrimidin-4-yl]amino}-1-(2-{[2-(1-methyl-2,6-dioxopiperidin-3-yl)-1,3-dioxo-2,3-dihydro-1H-isoindol-5-yl]oxy}ethyl)-2-oxo-1,2-dihydroquinolin-3-yl)oxy]-N-methylacetamide] |  |  |  | < 10 nM
CNC(=O)COc1cc2cc(Nc3nc(N4CCC(O[C@H]5C[C@H](N6CCC7(c8ccc9c(c8F)CN(C8CCC(=O)NC8=O)C9=O)CC7C6)C5)CC4)ncc3Cl)ccc2n(C(C)C)c1=O (stereo partly shown) [Compound 283, 2-({6-[(5-chloro-2-{4-[(1r,3r)-3-{6-[2-(2,6-dioxopiperidin-3-yl)-4-fluoro-1-oxo-2,3-dihydro-1H-isoindol-5-yl]-3-azabicyclo[4.1.0]heptan-3-yl}cyclobutoxy]piperidin-1-yl}pyrimidin-4-yl)amino]-2-oxo-1-(propan-2-yl)-1,2-dihydroquinolin-3-yl}oxy)-N-methylacetamide] |  |  | ≥ 70% | < 10 nM
CNC(=O)COc1cc2cc(Nc3nc(N4CCN(CC5CCC6(CC5)CN(c5ccc7c(c5F)CN(C5CCC(=O)NC5=O)C7=O)C6)CC4)ncc3Cl)ccc2n(C(C)C)c1=O (stereo not shown) [Compound 307, 2-{[6-({5-chloro-2-[4-({2-[2-(2,6-dioxopiperidin-3-yl)-4-fluoro-1-oxo-2,3-dihydro-1H-isoindol-5-yl]-2-azaspiro[3.5]nonan-7-yl}methyl)piperazin-1-yl]pyrimidin-4-yl}amino)-2-oxo-1-(propan-2-yl)-1,2-dihydroquinolin-3-yl]oxy}-N-methylacetamide] |  |  | 50 to 70% | < 10 nM
